Laboratory results published in paper PMC6393351, “Linking Terpene Synthases to Sesquiterpene Metabolism in Grapevine Flowers” (Frontiers in Plant Science, 2019).
Where a chain is given by its changes, count along the chain named.

What was measured:
Assay in all cases: in vivo yeast expression, HS-SPME-GC-MS of volatiles
Format in all cases: cell-based
Details in all cases: endogenous FPP of engineered yeast GT051, not added; pH 6, 5 mM Mg2+, 30 °C, 16 h
VvivSBTPS02 = molecular target: T1, VvivSBTPS02 (Vitis vinifera, UniProt A0A482AJK8)
T1 construct: full-length ORF from cDNA; expressed in yeast GT051 under GAL1 promoter
T1 sequence (A0A482AJK8 1-555): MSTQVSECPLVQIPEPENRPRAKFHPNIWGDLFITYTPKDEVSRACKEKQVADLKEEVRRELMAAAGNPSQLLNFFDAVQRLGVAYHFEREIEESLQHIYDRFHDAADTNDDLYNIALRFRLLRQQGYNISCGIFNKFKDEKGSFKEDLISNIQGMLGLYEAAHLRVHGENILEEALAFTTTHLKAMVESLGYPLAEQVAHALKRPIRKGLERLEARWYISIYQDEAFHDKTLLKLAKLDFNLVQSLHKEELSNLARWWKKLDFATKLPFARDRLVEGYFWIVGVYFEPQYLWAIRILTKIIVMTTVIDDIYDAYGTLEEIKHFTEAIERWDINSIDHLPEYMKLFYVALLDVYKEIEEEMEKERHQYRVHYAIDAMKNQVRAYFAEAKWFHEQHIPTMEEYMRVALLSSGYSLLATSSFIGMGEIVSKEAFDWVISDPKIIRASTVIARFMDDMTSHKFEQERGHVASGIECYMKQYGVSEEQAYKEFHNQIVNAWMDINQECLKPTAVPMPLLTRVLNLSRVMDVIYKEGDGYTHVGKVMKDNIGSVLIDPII

VvivSHTPS27 = molecular target: T2, VvivSHTPS27 (Vitis vinifera, UniProt A0A482AKK8)
T2 construct: full-length ORF from cDNA; expressed in yeast GT051 under GAL1 promoter
T2 sequence (A0A482AKK8 1-557): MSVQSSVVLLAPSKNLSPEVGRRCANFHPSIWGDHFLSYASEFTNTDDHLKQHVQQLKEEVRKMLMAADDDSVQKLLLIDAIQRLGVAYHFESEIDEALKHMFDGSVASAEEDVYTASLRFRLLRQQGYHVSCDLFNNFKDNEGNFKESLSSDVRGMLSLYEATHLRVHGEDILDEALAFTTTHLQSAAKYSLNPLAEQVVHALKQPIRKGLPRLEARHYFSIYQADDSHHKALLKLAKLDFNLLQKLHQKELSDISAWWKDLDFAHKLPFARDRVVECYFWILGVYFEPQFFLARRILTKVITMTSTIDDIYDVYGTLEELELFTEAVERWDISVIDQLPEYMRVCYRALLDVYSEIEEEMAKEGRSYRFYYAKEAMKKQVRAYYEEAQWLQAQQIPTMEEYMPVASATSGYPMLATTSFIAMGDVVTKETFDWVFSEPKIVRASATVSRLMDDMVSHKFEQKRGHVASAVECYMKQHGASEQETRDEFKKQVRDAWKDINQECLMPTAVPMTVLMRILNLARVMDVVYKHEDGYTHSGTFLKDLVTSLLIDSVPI

VvivMATPS01 = molecular target: T3, VvivMATPS01 (Vitis vinifera, UniProt A0A482ANT9)
T3 construct: full-length ORF from cDNA; expressed in yeast GT051 under GAL1 promoter
T3 sequence (A0A482ANT9 1-555): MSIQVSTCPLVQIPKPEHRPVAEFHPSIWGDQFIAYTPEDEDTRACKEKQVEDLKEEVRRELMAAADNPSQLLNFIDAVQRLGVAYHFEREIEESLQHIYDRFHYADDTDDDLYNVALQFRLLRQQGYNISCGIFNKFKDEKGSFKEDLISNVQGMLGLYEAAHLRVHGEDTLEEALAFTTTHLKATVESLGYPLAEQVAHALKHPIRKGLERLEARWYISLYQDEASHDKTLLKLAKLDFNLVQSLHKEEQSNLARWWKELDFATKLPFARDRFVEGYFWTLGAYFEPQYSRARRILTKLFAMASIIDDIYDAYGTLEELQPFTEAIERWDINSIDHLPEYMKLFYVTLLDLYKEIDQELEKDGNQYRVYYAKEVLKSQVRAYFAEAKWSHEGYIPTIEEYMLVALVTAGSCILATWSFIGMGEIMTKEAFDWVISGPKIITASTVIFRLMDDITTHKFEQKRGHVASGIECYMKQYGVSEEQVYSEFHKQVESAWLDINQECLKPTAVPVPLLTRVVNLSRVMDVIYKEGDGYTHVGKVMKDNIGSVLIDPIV

VvivMATPS28 = molecular target: T4, VvivMATPS28 (Vitis vinifera, UniProt A0A482AJV9)
T4 construct: full-length ORF from cDNA; expressed in yeast GT051 under GAL1 promoter
T4 sequence (A0A482AJV9 1-558): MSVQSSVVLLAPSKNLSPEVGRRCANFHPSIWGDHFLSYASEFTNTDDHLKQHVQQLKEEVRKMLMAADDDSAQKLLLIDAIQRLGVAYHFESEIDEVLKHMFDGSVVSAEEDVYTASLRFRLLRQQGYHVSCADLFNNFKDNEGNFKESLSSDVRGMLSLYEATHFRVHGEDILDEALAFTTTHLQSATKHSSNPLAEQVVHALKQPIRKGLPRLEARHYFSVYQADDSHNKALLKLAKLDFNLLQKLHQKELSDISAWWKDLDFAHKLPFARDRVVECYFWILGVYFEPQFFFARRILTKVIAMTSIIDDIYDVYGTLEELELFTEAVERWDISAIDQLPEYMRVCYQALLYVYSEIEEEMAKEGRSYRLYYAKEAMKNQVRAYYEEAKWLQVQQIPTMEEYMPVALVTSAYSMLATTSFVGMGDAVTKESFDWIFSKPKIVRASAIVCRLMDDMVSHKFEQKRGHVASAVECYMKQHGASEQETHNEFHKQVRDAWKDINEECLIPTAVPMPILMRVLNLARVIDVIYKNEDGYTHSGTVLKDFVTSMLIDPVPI

VvivMATPS27 = molecular target: T5, VvivMATPS27 (Vitis vinifera, UniProt E5GAF4)
T5 construct: full-length ORF from cDNA; expressed in yeast GT051 under GAL1 promoter
T5 sequence (E5GAF4 1-557): T2 sequence (A0A482AKK8 1-557) with F27Y

VvivMATPS10 = molecular target: T6, VvivMATPS10 (Vitis vinifera, UniProt A0A482AL43)
T6 construct: full-length ORF from flower cDNA; yeast GT051 (GAL1 promoter); also transient expression in N. benthamiana (pEAQ-HT-DEST1)
T6 sequence (A0A482AL43 1-560): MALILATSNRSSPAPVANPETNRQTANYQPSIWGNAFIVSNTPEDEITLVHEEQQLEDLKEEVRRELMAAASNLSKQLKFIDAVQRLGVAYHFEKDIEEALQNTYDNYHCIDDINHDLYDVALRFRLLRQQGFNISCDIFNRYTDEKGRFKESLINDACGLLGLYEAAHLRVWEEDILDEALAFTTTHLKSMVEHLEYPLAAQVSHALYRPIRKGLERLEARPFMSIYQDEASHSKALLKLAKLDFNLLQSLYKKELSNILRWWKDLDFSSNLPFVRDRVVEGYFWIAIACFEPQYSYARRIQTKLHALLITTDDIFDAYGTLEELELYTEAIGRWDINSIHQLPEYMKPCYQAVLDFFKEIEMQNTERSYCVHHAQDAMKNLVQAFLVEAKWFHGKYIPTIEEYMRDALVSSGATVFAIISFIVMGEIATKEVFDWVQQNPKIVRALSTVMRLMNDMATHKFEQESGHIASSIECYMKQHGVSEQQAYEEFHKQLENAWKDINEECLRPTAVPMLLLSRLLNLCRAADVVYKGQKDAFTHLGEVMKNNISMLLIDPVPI

VvivSBTPS01 = molecular target: T7, VvivSBTPS01 (Vitis vinifera, UniProt A0A482ALZ4)
T7 construct: full-length ORF from cDNA; expressed in yeast GT051 under GAL1 promoter
T7 sequence (A0A482ALZ4 1-555): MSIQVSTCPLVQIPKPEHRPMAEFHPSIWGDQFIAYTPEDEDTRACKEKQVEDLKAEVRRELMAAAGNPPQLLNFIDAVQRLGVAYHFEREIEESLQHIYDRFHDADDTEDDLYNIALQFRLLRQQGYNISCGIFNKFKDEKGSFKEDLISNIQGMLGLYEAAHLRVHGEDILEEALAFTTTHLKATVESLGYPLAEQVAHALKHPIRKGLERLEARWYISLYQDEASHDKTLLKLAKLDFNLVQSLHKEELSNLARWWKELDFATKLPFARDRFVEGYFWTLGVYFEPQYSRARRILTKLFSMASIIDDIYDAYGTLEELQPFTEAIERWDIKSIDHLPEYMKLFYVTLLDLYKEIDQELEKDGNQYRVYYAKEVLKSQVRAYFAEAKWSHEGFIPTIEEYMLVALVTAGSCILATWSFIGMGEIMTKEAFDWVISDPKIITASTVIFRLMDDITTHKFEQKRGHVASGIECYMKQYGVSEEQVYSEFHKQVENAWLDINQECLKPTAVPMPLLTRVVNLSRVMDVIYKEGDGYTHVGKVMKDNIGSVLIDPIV

CC(C)=CCC/C(C)=C/CC/C(C)=C/COP(=O)(O)OP(=O)(O)O [FPP]
in vivo yeast expression, HS-SPME-GC-MS of volatiles (VvivSBTPS02): increase the metabolic flux for the FPP terpene precursor
in vivo yeast expression, HS-SPME-GC-MS of volatiles (VvivSHTPS27): increase the metabolic flux for the FPP terpene precursor
in vivo yeast expression, HS-SPME-GC-MS of volatiles (VvivMATPS01): increase the metabolic flux for the FPP terpene precursor
in vivo yeast expression, HS-SPME-GC-MS of volatiles (VvivMATPS28): increase the metabolic flux for the FPP terpene precursor
in vivo yeast expression, HS-SPME-GC-MS of volatiles (VvivMATPS27): increase the metabolic flux for the FPP terpene precursor
in vivo yeast expression, HS-SPME-GC-MS of volatiles (VvivMATPS10): increase the metabolic flux for the FPP terpene precursor
in vivo yeast expression, HS-SPME-GC-MS of volatiles (VvivSBTPS01): increase the metabolic flux for the FPP terpene precursor
